Results on eight compounds are retold here after ChEMBL document CHEMBL6153162, “Receptor-Interacting Protein Kinase 1 (RIPK1) Inhibitors as Potential Treatment for Several Inflammatory and Neurodegenerative Diseases” (ACS Med Chem Lett, 2025).

A value given as a limit tells only on which side of the number the result lay.

The target of this assay is PI3-kinase p110-delta/p85-alpha (Homo sapiens, UniProt O00329). Briefly: Inhibition of His-tagged full-length recombinant human PIK3CD/PIK3R1 extracted from baculovirus expression system incubated for 1 hr by FRET assay.
Sequence of PI3-kinase p110-delta/p85-alpha (P27986 whole entry): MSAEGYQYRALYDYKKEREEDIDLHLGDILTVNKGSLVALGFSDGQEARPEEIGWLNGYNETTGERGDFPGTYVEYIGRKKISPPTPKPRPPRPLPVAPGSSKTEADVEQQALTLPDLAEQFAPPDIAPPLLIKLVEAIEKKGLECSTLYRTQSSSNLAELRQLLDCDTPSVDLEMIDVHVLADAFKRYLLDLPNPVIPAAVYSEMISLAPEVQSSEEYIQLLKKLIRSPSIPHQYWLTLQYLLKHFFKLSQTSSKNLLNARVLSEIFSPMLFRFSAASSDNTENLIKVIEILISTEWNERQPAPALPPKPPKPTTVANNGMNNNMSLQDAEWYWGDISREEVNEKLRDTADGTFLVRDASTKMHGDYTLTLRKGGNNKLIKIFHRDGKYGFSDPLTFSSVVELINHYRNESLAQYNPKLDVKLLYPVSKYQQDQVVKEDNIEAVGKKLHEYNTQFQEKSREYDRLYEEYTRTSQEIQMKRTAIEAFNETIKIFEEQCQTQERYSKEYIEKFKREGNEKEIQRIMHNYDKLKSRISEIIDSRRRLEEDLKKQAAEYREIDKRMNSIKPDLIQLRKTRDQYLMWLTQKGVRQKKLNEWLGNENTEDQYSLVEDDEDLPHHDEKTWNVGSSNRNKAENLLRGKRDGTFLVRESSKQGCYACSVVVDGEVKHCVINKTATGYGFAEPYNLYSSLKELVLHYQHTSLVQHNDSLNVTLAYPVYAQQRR
Sequence of PI3-kinase p110-delta/p85-alpha (O00329 whole entry): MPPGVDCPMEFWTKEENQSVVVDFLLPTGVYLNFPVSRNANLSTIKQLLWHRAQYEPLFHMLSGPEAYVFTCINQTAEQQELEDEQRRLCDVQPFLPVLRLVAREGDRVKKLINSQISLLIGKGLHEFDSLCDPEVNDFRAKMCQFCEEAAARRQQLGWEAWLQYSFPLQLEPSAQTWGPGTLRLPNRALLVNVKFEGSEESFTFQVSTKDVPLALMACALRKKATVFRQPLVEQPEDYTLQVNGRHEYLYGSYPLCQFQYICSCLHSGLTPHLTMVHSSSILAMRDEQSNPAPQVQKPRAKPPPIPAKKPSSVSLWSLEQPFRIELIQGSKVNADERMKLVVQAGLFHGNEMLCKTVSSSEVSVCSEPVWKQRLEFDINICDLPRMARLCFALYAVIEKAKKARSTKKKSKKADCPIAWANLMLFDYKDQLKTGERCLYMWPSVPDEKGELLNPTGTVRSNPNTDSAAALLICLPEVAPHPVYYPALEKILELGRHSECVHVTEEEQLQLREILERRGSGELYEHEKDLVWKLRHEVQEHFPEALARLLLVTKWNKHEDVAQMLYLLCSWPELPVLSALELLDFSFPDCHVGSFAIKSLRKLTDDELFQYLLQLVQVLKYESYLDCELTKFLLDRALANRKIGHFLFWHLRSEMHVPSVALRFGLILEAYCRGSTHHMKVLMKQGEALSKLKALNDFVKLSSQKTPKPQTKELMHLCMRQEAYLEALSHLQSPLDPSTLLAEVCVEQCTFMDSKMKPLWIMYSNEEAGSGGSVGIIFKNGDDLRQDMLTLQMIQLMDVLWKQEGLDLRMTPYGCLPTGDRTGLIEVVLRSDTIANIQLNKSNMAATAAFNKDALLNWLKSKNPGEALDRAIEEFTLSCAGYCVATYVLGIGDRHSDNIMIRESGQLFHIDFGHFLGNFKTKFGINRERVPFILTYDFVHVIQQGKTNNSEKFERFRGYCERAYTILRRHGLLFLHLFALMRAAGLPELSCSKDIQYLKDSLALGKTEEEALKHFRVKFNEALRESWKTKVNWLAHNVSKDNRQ

Broadly, the IC50 is the point on the concentration scale where inhibition reaches its midpoint. Take `Cc1cc(F)c(-c2ccn3nc(N)nc3c2)cc1C(=O)NCCC(O)c1ccc(C(F)(F)F)cc1` (racemic): the half-inhibitory concentration (IC50) is above 15 nM.

Take `Cc1ccc(-c2ccn3nc(N)nc3c2)c(F)c1C(=O)NC(CF)CC(O)c1ccc(Cl)cc1` (stereo not drawn): the concentration for half-maximal inhibition (IC50) was above 15 nM.

Consider `Cc1ccc(-c2ccn3nc(N)nc3c2)c(F)c1C(=O)NCC(F)(F)C(O)c1ccc(Cl)c(Cl)c1` (single isomer, unassigned), for which the IC50 is above 15 nM.

For the compound `Cc1ccc(-c2ccn3nc(N)nc3c2)c(F)c1C(=O)NCCC(F)c1ccc(Cl)cc1` (racemic), the half-maximal inhibitory concentration (IC50) is above 15 nM.

As for `Cc1ccc(-c2ccn3nc(N)nc3c2)c(F)c1C(=O)NCC(F)(F)C(O)C1CC(F)(F)C1` (single isomer, unassigned), the half-maximal inhibitory concentration (IC50) was above 15 nM.

`COc1c(F)cccc1C(O)CCNC(=O)c1c(C)ccc(-c2ccn3nc(N)nc3c2)c1F` (single isomer, unassigned): the IC50 stood at 15 nM.

Take `Cc1ccc(-c2ccn3nc(N)nc3c2)c(F)c1C(=O)NC[C@@H](F)[C@H](O)c1ccc(Cl)cc1`: the IC50 is above 15 nM.

As for `Cc1ccc(-c2ccn3nc(N)nc3c2)c(F)c1C(=O)NCCC(O)c1ccc(Cl)cn1` (stereo not drawn), the 50% inhibitory concentration (IC50) was above 15 nM.
